Data reported in patent US12466807B2, “Salt and crystal form of a FAK inhibitor” (Amplia Therapeutics Limited, priority 2019, dated 2025).
“Also recorded” adds a separate entry of the source. Marks after values point to notes of the source that are not given here.

Columns and labels:
7-day stability study = format: physicochemical; conditions: for XRPD / HPLC Purity: 1 week; for HPLC Purity: input purity 99.8%
Method: 7-day stability tests were carried out as follows: • Approximately 10-20 mg of Formula I L-tartrate Pattern 1 was placed at either 40° C./75% RH, 80° C. or under ambient light and temperature for 1 week. The resulting solids were analyzed by XRPD to assess the physical stability and HPLC to assess the chemical stability.

[1] = Thermodynamic solubility studies; format: physicochemical; conditions: for HPLC Conc: ca. 22° C.
[2] = Salt disproportionation studies; format: physicochemical; conditions: for XRPD Result: solid after 24 h in deionized water
Method: Salt disproportionation studies were carried out as follows: • Approximately 10-20 mg of Formula I free base, L-tartrate Pattern 1 were weighed into HPLC vials. • 1 mL deionized water was then added to each vial and the vials capped and shaken at ambient temperature for 24 hours. • After this time, the samples were transferred to centrifuge tubes with nylon filters (0.22 μm) and centrifuged for approximately 15 minutes. The isolated solids were analyzed by XRPD and the filtrates analyzed by HPLC for concentration determination and the pH of all the filtrates were measured with a pH meter.

[3] = Oral exposure (pharmacokinetics) in rats; format: in vivo, male Sprague Dawley rats; conditions: rat
Method: To compare the exposure of the compound of Formula I in male Sprague Dawley rats following oral administration of the free base and L-tartrate salt at a target dose of 20 mg/kg (as free base equivalent).
Further details of the in-life, formulation and bioanalytical procedures together with the data analysis, are described in Appendix 1.
In-Life • The exposure of Formula I was studied in overnight-fasted male Sprague Dawley rats that had access to water ad libitum throughout the pre- and post-dose sampling period, and access to food was re-instated 4 h post-dose. In-life details are provided in Table A1-1. • Samples of arterial blood and total urine were collected up to 48 h post-dose. Arterial blood was collected directly into borosilicate vials (at 4° C.) containing heparin, Complete® (a protease inhibitor cocktail) and potassium fluoride to minimise potential for ex vivo degradation of Formula I in blood/plasma samples. Once collected, blood samples were centrifuged, supernatant plasma was removed and stored frozen (−80° C.) until analysis by LC-MS.
The extraction of the test compound from plasma samples was conducted using protein precipitation with acetonitrile. Both solution and plasma standards were freshly prepared, with each set of standards comprising at least seven different analyte concentrations. Solution standards were diluted from a stock solution (1 mg/mL in DMSO) with 50% acetonitrile in water. Plasma standards were prepared by spiking blank plasma (50 μL) with solution standards (10 μL) and the internal standard, diazepam (10 μL, 5 μg/mL).
Plasma samples were similarly prepared, except that blank acetonitrile (10 μL) was added instead of solution standards. Protein precipitation was carried out by the addition of acetonitrile (120 μL), vortexing (20 s) and centrifugation (10,000 rpm) in a microcentrifuge for 3 minutes. The supernatant was subsequently separated and 3 μL injected directly onto the column for LC/MS analysis using conditions tabulated below. All plasma concentrations are expressed as the non-salt equivalent.
Standard Calculations • Plasma concentration versus time data were analysed using non-compartmental methods (PKSolver Version 2.0). Standard calculations for each pharmacokinetic parameter are listed below.
[formula] • AUCIV Area under the plasma concentration versus time profile from time zero to infinity after IV administration (reported previously: CDCO_FAK_11_031) • t1/2 Elimination half-life • λ2 Terminal elimination rate constant after IV administration • BA Oral bioavailability • AUCoral Area under the plasma concentration versus time profile from time zero to infinity after oral administration • Cmax Maximum plasma concentration observed after oral administration. • Tmax Time to achieve Cmax • Differences in pharmacokinetic parameters (t½, AUC, Cmax, Tmax and BA) between free base and L-tartrate salt were evaluated using an unpaired t-test testing for significance at α=0.05 (GraphPad Prism, version 7.01)

[4] = Dynamic/gravimetric vapour sorption (DVS/GVS) hygroscopicity; format: physicochemical; conditions: for Hygroscopicity, mass uptake (DVS/GVS): at 90% R.H., 25° C.
Method: Approximately 10-20 mg of sample was placed into a mesh vapour sorption balance pan and loaded into the DVS-1 dynamic vapour sorption balance by Surface Measurement Systems. The sample was subjected to a ramping profile from 40-90% relative humidity (RH) at 10% increments, maintaining the sample at each step until a stable weight had been achieved (dm/dt 0.004%, minimum step length 30 minutes, maximum step length 500 minutes) at 25° C. After completion of the sorption cycle, the sample was dried using the same procedure to 0% RH and then a second sorption cycle back to 40% RH. Two cycles were performed. The weight change during the sorption/desorption cycles were plotted, allowing for the hygroscopic nature of the sample to be determined. XRPD analysis was then carried out on any solid retained.
Approximately 10-20 mg of sample was placed into a mesh vapour sorption balance pan and loaded into an IGASorp Moisture Sorption Analyser balance by Hiden Analytical. The sample was subjected to a ramping profile from 40-90% relative humidity (RH) at 10% increments, maintaining the sample at each step until a stable weight had been achieved (98% step completion, minimum step length 30 minutes, maximum step length 60 minutes) at 25° C. After completion of the sorption cycle, the sample was dried using the same procedure to 0% RH, and finally taken back to the starting point of 40% RH. Two cycles were performed. The weight change during the sorption/desorption cycles were plotted, allowing for the hygroscopic nature of the sample to be determined.

[5] = listed as Formula I L-tartrate Pattern 1
[6] = PO 20 mg/kg (free base equivalent), mean ± SD, n = 3, listed as L-Tartrate salt, 20 mg/kg

SMILES: COc1cc(C2CCN(C)CC2)ccc1Nc1ncc(C(F)(F)F)c(CCc2ccccc2CC(N)=O)n1 [L-Tartrate]
- XRPD (7-day stability study; 40° C./75% RH): Pattern 1
- HPLC Purity (7-day stability study; 40° C./75% RH): 99.6 % Area
- XRPD (7-day stability study; 80° C.): Pattern 1
- HPLC Purity (7-day stability study; 80° C.): 99.3 % Area
- XRPD (7-day stability study; Ambient temperature and light): Pattern 1
- HPLC Purity (7-day stability study; Ambient temperature and light): 99.5 % Area
- Stability under accelerated conditions (7-day stability study; one week, ambient temperature and light, 40° C./75% RH and 80° C.): considered stable
- Thermodynamic Solubility ([1]; Water): 900 µg/mL
- Thermodynamic Solubility ([1]; pH 1.0): 300 µg/mL
- HPLC Conc ([1]; pH 1.0, 24 h slurry): 0.3 mg/mL
- XRPD Result ([1]; pH 1.0, solid after 24 h slurry, listed as L-Tartrate Pattern 1): Possible HCl salt
- XRPD Result ([1]; pH 1.0, solid after 24 h slurry, listed as L-tartrate Pattern 1): possible HCl salt
- pH Post-24 h Slurry ([1]; pH 1.0, listed as L-Tartrate Pattern 1): 1.87
- Thermodynamic Solubility ([1]; pH 4.5): 300 µg/mL
- HPLC Conc ([1]; pH 4.5, 24 h slurry, listed as L-Tartrate Pattern 1): 0.3 mg/mL
- XRPD Result ([1]; pH 4.5, solid after 24 h slurry, listed as L-Tartrate Pattern 1): Pattern 2
- pH Post-24 h Slurry ([1]; pH 4.5, listed as L-Tartrate Pattern 1): 3.99
- Thermodynamic Solubility ([1]; pH 6.8): 200 µg/mL
- HPLC Conc ([1]; pH 6.8, 24 h slurry): 0.2 mg/mL
- HPLC Conc ([1]; pH 6.8, 24 h slurry, listed as L-Tartrate Pattern 1): 0.2 mg/mL
- XRPD Result ([1]; pH 6.8, solid after 24 h slurry, listed as L-Tartrate Pattern 1): Pattern 2
- pH Post-24 h Slurry ([1]; pH 6.8, listed as L-Tartrate Pattern 1): 4.43
- HPLC Conc ([1]; water, 24 h slurry, listed as L-Tartrate Pattern 1): 0.9 mg/mL
- XRPD Result ([1]; water, solid after 24 h slurry, listed as L-Tartrate Pattern 1): Pattern 2
- pH Post-24 h Slurry ([1]; water, listed as L-Tartrate Pattern 1): 3.43
- Salt disproportionation ([2]; deionized water, 24 h): no evidence of disproportionation
- Water pH Post-24 h ([2]; deionized water, 24 h, ambient temperature, listed as L-Tartrate Pattern 1): 3.43
- XRPD Result [2, 5]: L-tartrate Pattern 2
- XRPD Result ([2]; listed as L-Tartrate Pattern 1): L-Tartrate Pattern 2
- Apparent t1/2 [3, 6]: 5.8 ± 0.2 h
- BA [3, 6]: 71.3 ± 7.5 %
- Plasma AUC0-inf [3, 6]: 14.6 ± 1.5* h*μM
- Tmax [3, 6]: 5.7 ± 1 h
- Cmax ([3]; PO 20 mg/kg (free base equivalent), mean ± SD, n = 3, listed as L-Tartrate salt, 20 mg/kg, read-out: Plasma Cmax): 1200 ± 300 nM
- Cmax greater than the free base ([3]; PO 20 mg/kg): approximately 30%
- Plasma AUC compared with the free base ([3]; PO 20 mg/kg): significantly higher
- Adverse reactions or compound-related side effects ([3]; PO 20 mg/kg, 48 h sampling period): No adverse reactions or compound-related side effects were observed
- % Dose in urine (unchanged Formula I) ([3]; PO 20 mg/kg, pooled urine up to 48 h, listed as L-Tartrate salt, 20 mg/kg): 0.341 ± 0.042%
- AUC greater than the free base ([3]; PO 20 mg/kg, P<0.05): ~50%
- N-demethylation metabolite of Formula I ([3]; plasma and urine after PO 20 mg/kg, not quantified): detected in plasma and urine
- Post-GVS XRPD ([4]; after GVS humidity cycles, listed as Formula I L-tartrate Pattern 1): no changes to the XRPD pattern; also recorded: no change in form
- Hygroscopicity, mass uptake (DVS/GVS) [4]: Uptake of 0.6 wt %
- Hygroscopicity, mass uptake (DVS/GVS) [4, 5]: 0.6 wt %
- Hygroscopic nature by GVS analysis ([4]; up to 90% RH): slightly hygroscopic
